Laboratory results: patent publication US8703811B2, “Small molecule inhibitors of Plasmodium falciparum dihydroorotate dehydrogenase” (Genzyme Corporation, priority 2008, dated 2014)

Key:
P. falciparum HB3 = experiment: Inhibition of in vitro P. falciparum culture, [3H]-hypoxanthine uptake, HB3; type: cell-based; settings: Plasmodium falciparum, HB3, Erythrocyte; [3H]-hypoxanthine uptake by parasite infected erythrocytes; read-out: HB3 IC50
Experimental: (§1) P. falciparum strains D10, 3D7, HB3, and Dd2 were obtained from the Malaria Research and Reference Reagent Resource Center (Manassas, Va.). The parasite strains were maintained in vitro by method of Trager and Jensen. The inhibition of P. falciparum growth in the presence of drug was assessed by the relative reduction of [^3H]-hypoxanthine uptake as previously described. Inhibition data were fitted to Equation 1 using non-linear regression analysis except that the relative velocity of parasite growth was substituted for the rate of product formation.

pfDHODH [1] = molecular target: T1, pfDHODH (Plasmodium falciparum (isolate 3D7), UniProt Q08210); experiment: pfDHODH activity with FeCy as electron acceptor; settings: read-out: % Inhibition of Product Formation Rate with 50 μM Inhibitor, FeCy
Experimental: Inhibitors of DHODH, as classified by the chromogen reduction assay, were also evaluated for activity using FeCy as an electron acceptor. A final concentration of 5-50 nM DHODH, 200 μM L-DHO and 100 μM FeCy in Buffer C was used in this assay. Both the reduction of FeCy and the formation of orotate was monitored at 420 nm (ε420=1 mM^−1 cm^−1) and 290 nm (ε280=2 mM^−1 cm^−1), respectively, noting that two molecules of FeCy are reduced for one molecule of L-DHO. As with the previous assays, the reaction was performed at 25° C. and initiated with the addition of enzyme.

pfDHODH [2] = molecular target: T1, pfDHODH; experiment: DHODH chromogen reduction (DCIP) assay, pfDHODH; type: biochemical, P. falciparum; settings: 200 μM L-DHO; for inhibition at 50 µM: 50 μM inhibitor, 100 μM CoQD, 60 μM DCIP, read-out: % Inhibition of Product Formation Rate with 50 μM Inhibitor, CoQD; for IC50: pfDHODH IC50, DCIP assay, 18 μM CoQD, 100 μM DCIP, 20 nM enzyme
Text: Type 2 DHODH activity was monitored with either the direct assay measuring the formation of orotate or via a chromogen reduction assay using DCIP. Although the extinction coefficient and absorption wavelength are preferable for the chromogen reduction assay, the inorganic electron acceptor DCIP can be utilized by DHODH as the final electron acceptor in lieu of CoQn when the endogenous substrate is at a low concentration. As such, the direct assay was used to measure the binding affinity of pfDHODH to CoQD and L-DHO. The enzymatic reaction was performed by varying the L-DHO concentration (1-400 μM) or CoQD concentration (1-200 μM) while keeping the other substrate constant and in excess.
Substrate specificity and enzyme inhibition data was analyzed with GraphPad Prism Version 4 for Windows (GraphPad Software). Kinetic constants were calculated by non-linear regression fitting of the data to the Michaelis-Menten equation [36]. IC50 values were determined by non-linear regression fitting of the data to Equation 1: […]

P. falciparum D10 = experiment: Inhibition of in vitro P. falciparum culture, [3H]-hypoxanthine uptake, D10; type: cell-based; settings: Plasmodium falciparum, D10, Erythrocyte; [3H]-hypoxanthine uptake by parasite infected erythrocytes; read-out: D10 IC50
Experimental: as §1

[3] = Renal Proximal Tubule Epithelial Cell Toxicity Screen; type: cell-based
Experimental: The Renal Proximal Tubule Epithelial Cell Toxicity Screen is designed to determine whether compound mixtures, breakouts or single compounds are toxic to normal renal epithelial cells. […] Basically, the screen consists of plating renal epithelial cells, exposing them to the desired compound(s) for 4 days and measuring cell viability using the Alamar Blue reagent.
Harvested Kidney Epithelial cells were diluted in REGM to 1.5×10^4 cells/mL. […] NOTE: One plate, the T=0 plate required that 20-30 wells be seeded, and all the other plates had 96 wells seeded. Plates were incubated in 37° C./5% CO2 incubator for 24 hours.
(§2) Alamar Blue solution (25 μL/well) was added to the T=0 plate and mixed. The plate was incubated in 37° C./5% CO2 incubator for 4 hours, mixed and then the fluorescence was measured. 10% Tween 20 stock (10 μL) was added into rows A-D in column 1 (positive control). DMSO (0.5 μL) was added into column 2 (negative control). Compounds were placed into designated wells for desired testing as follows:
Plates were mixed on the shaker, and then incubated in 37° C./5% CO2 incubator for 96 hours. Day 6:
Alamar Blue solution (25 μL/well) was added to the plates containing the compounds and mixed. Plates were incubated in 37° C./5% CO2 incubator for 4 hours, mixed and the fluorescence was measured.

P. falciparum Dd2 = experiment: Inhibition of in vitro P. falciparum culture, [3H]-hypoxanthine uptake, Dd2; type: cell-based; settings: Plasmodium falciparum, DD2, Erythrocyte, [3H]-hypoxanthine uptake by parasite infected erythrocytes; read-out: Dd2 IC50
Experimental: as §1

[4] = system: P. falciparum D10-scDHODH; experiment: Inhibition of transgenic D10-scDHODH parasites, [3H]-hypoxanthine uptake; type: cell-based; settings: for IC50: Plasmodium falciparum, D10, read-out: D10-scDHODH IC50
Experimental: as §1
Transgenic parasites expressing scDHODH were generated as described by Painter et al. except that full length scDHODH was cloned directly into the pGem3Z vector without a GFP tag. The resultant plasmid was transfected into ring stages of P. falciparum D10 by electroporation and maintained in culture using standard methods under the selection of WR99210.

[5] = Normal Human Dermal Fibroblast Toxicity Screen; type: cell-based; settings: human, normal human dermal fibroblasts; four days exposure, Alamar Blue; read-out: Dermal Fibroblast LC50
Experimental: The Normal Human Dermal Fibroblast Toxicity Screen Protocol is designed to determine whether compound mixtures, breakouts or single compounds are toxic to normal human dermal fibroblasts. The screen involves plating the dermal fibroblasts and then exposing them to the compounds for four days, then cell viability is measured using Alamar Blue reagent.
Harvested Dermal Fibroblast cells were diluted in Growth Media to 0.25 to 0.3×10^5 cells/mL. […] NOTE: One plate, the T=0 plate required that 20-30 wells be seeded and all the other plates had 96 wells seeded. Plates were incubated in 37° C./5% CO2 incubator for 24 hours.
as §2, with “the plate was agitated.” for “mixed.”, “plate” for “plate was incubated”, “incubator was incubated” for “incubator”, “3” for “4”, “agitated the” for “mixed”, “and” for “and then”
Plates were mixed on the shaker, then incubated in 37° C./5% CO2 incubator for 96 hours.
Alamar Blue solution (25 μL/well) was added to the plates containing the compounds, and the plates were agitated. The plates were incubated in 37° C./5% CO2 incubator for 3 hours, agitated and then the fluorescence was measured.

P. falciparum 3D7 = experiment: Inhibition of in vitro P. falciparum culture, [3H]-hypoxanthine uptake, 3D7; type: cell-based; settings: Plasmodium falciparum, 3D7, Erythrocyte; [3H]-hypoxanthine uptake by parasite infected erythrocytes; read-out: 3D7 IC50
Experimental: as §1

T1 sequence (Q08210 159-565 limits assumed): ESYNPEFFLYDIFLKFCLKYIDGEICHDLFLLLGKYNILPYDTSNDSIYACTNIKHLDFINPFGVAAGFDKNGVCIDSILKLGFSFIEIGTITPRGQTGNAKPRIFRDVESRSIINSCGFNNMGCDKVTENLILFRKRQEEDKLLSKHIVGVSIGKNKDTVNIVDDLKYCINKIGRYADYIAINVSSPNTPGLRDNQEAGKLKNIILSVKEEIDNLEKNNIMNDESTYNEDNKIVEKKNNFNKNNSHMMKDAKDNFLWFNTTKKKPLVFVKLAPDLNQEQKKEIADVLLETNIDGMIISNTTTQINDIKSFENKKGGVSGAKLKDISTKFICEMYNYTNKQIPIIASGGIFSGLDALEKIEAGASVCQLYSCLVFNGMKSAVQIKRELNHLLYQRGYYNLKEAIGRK

SMILES | IC50 (P. falciparum HB3) | inhibition at 50 µM (pfDHODH [1]) | inhibition at 50 µM (pfDHODH [2]) | IC50 (P. falciparum D10) | CC50 at 96 h [3] | IC50 (P. falciparum Dd2) | IC50 [4] | CC50 at 96 h [5] | IC50 (P. falciparum 3D7) | IC50 (pfDHODH [2]) | efficacy against D10-scDHODH strain compared to D10 parent strain ([4]; dose-effect curves, FIG. 5)
CCOC(=O)c1[nH]c(C)c(Cc2ccc(OCC)cc2)c1C [Compound 6] | 690 nM | 4.8% | 102% | 1200 nM | > 62000 nM | 440 nM | > 10000 nM | > 62000 nM | 770 nM | – | –
Fc1cc(I)ccc1Nc1ccnc2cc(Cl)ccc12 [Compound 4] | 2200 nM | 7.7% | 97% | 1000 nM | 49000 nM | 2300 nM | 980 nM | 64000 nM | 1800 nM | 580 ± 100 nM | –
CCCCCC1CCCc2c1nc1ccccc1c2O (centres unmarked) [Compound 3] | 270 nM | 17% | 100% | 370 nM | > 62000 nM | 230 nM | > 10000 nM | > 62000 nM | 320 nM | 340 ± 100 nM | –
CCc1nc(N)nc(N)c1-c1ccc(Cl)cc1 [Pyrimethamine, reference compound] | 940 nM | – | – | 55 nM | – | > 10000 nM | 47 nM | – | 36 nM | – | –
Cc1ccccc1/C=C/c1cc(O)c2ccccc2n1 [Compound 2] | 240 nM | 1.2% | 94% | 300 nM | > 62000 nM | 250 nM | 8800 nM | > 62000 nM | 320 nM | 930 ± 100 nM | –
O=C1C(O)=C([C@H]2CC[C@H](c3ccc(Cl)cc3)CC2)C(=O)c2ccccc21 [Atovaquone, reference compound] | 0.22 nM | – | – | 0.42 nM | – | 0.2 nM | > 2000 nM | – | 0.18 nM | – | significantly reduced drug efficacy
